Data taken from patent publication US10695352B2, “Combination therapy for treating malignancies” (Celgene Corporation, priority 2015, dated 2020).
Read-outs that look alike come from different tables or passages of the source.

How the values were obtained:
TF1 IDH2/R140Q cells [1] = conditions: for hemoglobin production (coloration/hemoglobinization of cell pellets): day 14, COMPOUND 1 0.2 and 1 μM, azacitidine 0.1 and 0.3 μM; for hemoglobin production (red color of cell pellets): day 18, COMPOUND 1 0.2 μM and 1.0 μM
Text: FIG. 1 in section A depicts COMPOUND 1 and azacitidine (AZA) combination schedule and dosing paradigms for sequential treatment of: 3 days (QDx3) of pre-treatment with azacitidine followed by treatment with the COMPOUND 1 for one week and erythropoietin (EPO)+COMPOUND 1 for another week. The cells were harvested on Day 18 and subjected to various endpoint assays for monitoring differentiation and death. FIG. 1, in section B depicts COMPOUND 1 and azacitidine combination schedule and dosing paradigms for concurrent treatment of: treatment for 7 days with the combination of azacitidine and COMPOUND 1 followed by 7 days of the treatment with azacitidine, COMPOUND 1 and EPO. The cells were harvested on Day 14 and subjected to various endpoint assays for monitoring differentiation and death.
(§1) Measures of cell differentiation, growth and death were evaluated in an engineered TF-1 erythroleukemia cells overexpressing the IDH2/R140Q allele or the empty vector control TF-1/pLVX (Wang et al., Science 340:622-626, 2013). The cells were grown in RPMI containing HEPES and L-glutamine (Lonza 12-115F), 10% FBS (HyClone SH30088.03), Pen/Strep (Life Technologies 15070-063), G418: final concentration 500 μg/ml (Life Technologies 10131-027); GM-CSF: final concentration 5 ng/ml (R&D 215-GM-050). Only newly grown cells were used. G418 and GM-CSF were added fresh to media each time cells were passaged. Media was changed every 2-3 days by pelleting cells and resuspending in fresh media or by adding 2 ml of cells to 10 ml of fresh media. When cells were treated with a compound, the media was changed by pelleting cells to ensure proper concentration of the compound.
F1/pLVX and TF1 IDH2/R140Q cells (100,000 cells/ml) were pretreated for 7 days with COMPOUND 1, azacitidine or combination thereof (medium was changed every 2 days) and washed with PBS to remove residual GM-CSF. Cells were induced to differentiate using EPO (2 unit/ml) in the presence or absence of COMPOUND 1. Induction continued for 7 days and the cell pellets were collected and imaged for hemoglobinization content (as a surrogate for differentiation into blood lineage).
(§2) Measures of cell differentiation, growth and death were evaluated in TF1-R140Q cells, using an in vitro EPO differentiation assay and dose-schedule paradigms represented in FIG. 1. Cells were treated with vehicle, azacitidine alone, COMPOUND 1 alone, or the combination of azacitidine and COMPOUND 1. In the sequential schedule, cells were pre-treated with azacitidine for three days before adding COMPOUND 1. In the concurrent schedule, cells were co-treated with azacitidine and COMPOUND 1 throughout the assay.

TF1 IDH2/R140Q cells [2] = conditions: for RNA expression of differentiation markers KLF1 and HBG: concurrent schedule; for increase in HBG gene expression: COMPOUND 1 0.2 μM, single agents or combination
Protocol: FIG. 2A depicts the effect of the combination of azacitidine and COMPOUND 1 used sequentially on differentiation markers. […] Treated cells were subjected to qRT-PCR (ii) and to HBG qRT-PCR (iii). FIG. 2B depicts the effect of the combination of azacitidine and COMPOUND 1 used concurrently on differentiation markers. […] Treated cells were subjected to qRT-PCR (ii) and to HBG qRT-PCR (iii).
as §1
The RNA was isolated from cells by RNA easy kit (obtained from Qiagen). 500 ng of RNA was used to make cDNA that was subjected to real-time qPCR to detect fetal hemoglobin (HBG) and KLF-1 gene expression. The RNA easy kit was obtained from Qiagen. cDNA was made from Superscript VILO kit (Life technologies). Taqman probes were obtained from Applied Biosciences.
as §2

TF1-R140Q cells [3] = assay: Hematopoietic stem cell and blast content determination (CD34, CD38, FACS); type: cell-based; conditions: for CD34+/CD38+ and CD34+/CD38− cell populations: end of EPO-differentiation assay; for decrease of hematopoietic progenitor cells (CD34+/CD38+): sequential treatment, COMPOUND 1 0.2 μM, azacitidine 0.1 μM, single agents or combination
Protocol: Flow cytometry analysis was performed for sequential and concurrent schedules. Hematopoietic progenitor cells (CD34+/CD38+) (i) and stem cells (CD34+/CD38−) (ii) populations were normalized to DMSO+EPO and plotted. Values for population percentage decreases are shown, with those in red font depicting greater than additive effect with the combination as compared to AZA or COMPOUND 1 as single agents.
Cells were blocked in 10×BSA and diluted with MACS rinsing solution to 1× concentration for 15 min (staining buffer, BD Biosciences). Supernatant was removed by spinning. 10 μl of anti-CD34 FITC and anti-CD38 APC antibodies (each in staining buffer) were added. Mouse IgG2a FITC and IgG2a APC were used as isotype controls. Cells were stained for 10 min in dark, the solution was spinned to remove supernatant, the cells were resuspended in 300 μl of staining buffer and proceed to fluorescence-activated cell sorting (FACS).
The hematopoietic stem (CD34+/CD38−) and progenitor (CD34+/CD38+) cell populations were quantified at the end of the EPO-differentiation assay (FIGS. 3 and 8). As single agents, both azacitidine and COMPOUND 1 reduced CD34+/CD38+(FIG. 3i) and CD34+/CD38− (FIG. 3ii) cell populations. […] For example, COMPOUND 1 (0.2 μM) and azacitidine (0.1 μM) as single agents decreased hematopoietic progenitor cells (CD34+/CD38+) by 32% and 7%, respectively, with sequential treatment, while the combination of azacitidine (0.1 μM) and COMPOUND 1 (0.2 μM) decreased the hematopoietic progenitor cell population by 64% (FIG. 3i).

TF1-R140Q cells [4] = assay: Annexin V/7-AAD flow cytometry cell death analysis; type: cell-based; conditions: concurrent dose-schedule regimen; average values across dose concentrations
Protocol: Annexin V and 7-AAD flow cytometry analysis was performed for sequential (day 18) and concurrent (day 14) dosing schedules. Populations were normalized to DMSO+EPO and fold change of percent Annexin V+ and/or 7-AAD+ was plotted.
Cell death was analyzed via Annexin V/7-AAD flow cytometry at the end of the EPO-differentiation assay (FIGS. 4 and 9). In the sequential dose-schedule regimen, there was no induction (<2-fold) of death (AnnexinV+ and/or 7AAD+) with a single agent. In the concurrent dose-schedule regimen, azacitidine and COMPOUND 1 as single agents increased the percentage of AnnexinV+ and/or 7AAD+ cells by 3.4-fold and 3.5-fold (average values across dose concentrations), respectively.

TF-1 R140Q cells = assay: Real-time growth and apoptosis (Caspase 3/7 dye) on IncuCyte Zoom; type: cell-based; conditions: for cell growth: COMPOUND 1 1-10 μM
Protocol: The TF-1 R140Q cells were pre-treated in bulk in flasks with 1 μM of QDx3 azacitidine and then plated with COMPOUND 1 concentrations of 10, 3 and 0.3 μM and Caspase 3/7 dye (obtained from Essen Biosciences) to monitor real-time growth and apoptosis on IncuCyte Zoom up to 104 hrs.
The TF-1 R140Q cells were plated with the combination of azacitidine (1 and 0.3 μM) and COMPOUND 1 (1 μM) and imaged for real-time growth and apoptosis on IncuCyte Zoom up to 104 hrs.
A real-time death analysis was performed using IncuCyte Zoom (FIGS. 5 and 6).

[5] = cited from earlier work
[6] = oral azacitidine; cited from earlier work
[7] = sequential experiment, azacitidine 1 μM

| SMILES | hemoglobin production (coloration/hemoglobinization of cell pellets) (TF1 IDH2/R140Q cells [1]; concurrent dosing regimen) | time to observe increased red color of cells (haem production) post-EPO (TF1 IDH2/R140Q cells [1]; sequential schedule) [days] | hemoglobin production (red color of cell pellets) (TF1 IDH2/R140Q cells [1]; sequential schedule) | RNA expression of differentiation markers KLF1 and HBG (TF1 IDH2/R140Q cells [2]) | increase in HBG gene expression (TF1 IDH2/R140Q cells [2]; concurrent, azacitidine 1 μM) [fold] | increase in HBG gene expression (TF1 IDH2/R140Q cells [2]; sequential, azacitidine 0.3 μM) [fold] | CD34+/CD38+ and CD34+/CD38− cell populations (TF1-R140Q cells [3]) | decrease of hematopoietic progenitor cells (CD34+/CD38+) (TF1-R140Q cells [3]) [%] | increase in percentage of AnnexinV+ and/or 7AAD+ cells (TF1-R140Q cells [4]) [fold] | cell growth (TF-1 R140Q cells; [7]) | caspase 3/7 death measure (TF-1 R140Q cells; summary, single agent, or concurrent combination) | solubility ([5]; dimethylsulfoxide (DMSO)) | solubility ([5]; ethanol/water (50/50), methanol/water (50/50) and methanol) | solubility ([5]; water) | cell death as evidenced by decreased cell pellet sizes (TF1 IDH2/R140Q cells [1]; concurrent dosing regimen, azacitidine 1 μM) | apoptosis (TF-1 R140Q cells; [7]) | solubility ([5]; acetone, ethanol and methyl ketone) | solubility ([5]; ethanol/water (50/50), propylene glycol and polyethylene glycol) | solubility ([5]; water, water-saturated octanol, 5% dextrose in water, N-methyl-2-pyrrolidone, normal saline and 5% Tween 80 in water) | maximum tolerated dose [6] [mg] |
| --- | --- | --- | --- | --- | --- | --- | --- | --- | --- | --- | --- | --- | --- | --- | --- | --- | --- | --- | --- | --- |
| CC(C)(O)CNc1nc(Nc2ccnc(C(F)(F)F)c2)nc(-c2cccc(C(F)(F)F)n2)n1 [COMPOUND 1, 2-methyl-1-[(4-[6-(trifluoromethyl)pyridin-2-yl]-6-{[2-(trifluoromethyl)pyridin-4-yl]amino}-1,3,5-triazin-2-yl)amino]propan-2-ol] | increased hemoglobin production upon EPO differentiation in a dose-dependent manner | 7 | increased hemoglobin production in a dose-dependent manner | Dose-dependent increases | 2.5 | 241 | reduced | 32 | 3.5 | no effect on cell growth | no effect |  |  |  |  |  |  |  |  |  |
| Nc1ncn([C@H]2C[C@H](O)[C@@H](CO)O2)c(=O)n1 [Decitabine, 4-amino-1-(2-deoxy-β-D-erythro-pentofuranosyl)-1,3,5-triazin-2(1H)one] |  |  |  |  |  |  |  |  |  |  |  | soluble | slightly soluble | sparingly soluble |  |  |  |  |  |  |
| Nc1ncn([C@@H]2O[C@H](CO)[C@@H](O)[C@H]2O)c(=O)n1 [azacitidine, 4-amino-1-O-D-ribofuranozyl-s-triazin-2(1H)-one] | increased hemoglobin production |  | little or no effect on cell pellet color | Dose-dependent increases | 7.1 | 92 | reduced | 7 | 3.4 | reduced growth |  | soluble |  |  | cell death occurred | increased apoptosis | insoluble | slightly soluble | sparingly soluble | 480 |
